Measured values from patent publication US20240011041A1, “PHAGE COMPOSITIONS FOR P[…]-CAS SYSTEMS AND METHODS OF USE THEREOF” (priority 2020, published 2024).
Where two headings read alike, the source gives them in different places.

Tested on: Pseudomonas aeruginosa isolates b1121, b2631, b3144
Experiment: Tobramycin MIC of the challenge isolates
Type: cell-based
Details: read-out: TOB MIC

NC[C@H]1O[C@H](O[C@H]2[C@H](O)[C@@H](O[C@H]3O[C@H](CO)[C@@H](O)[C@H](N)[C@H]3O)[C@H](N)C[C@@H]2N)[C@H](N)C[C@@H]1O [TOB, tobramycin]
MIC (isolate b1121, Respiratory): 0.5 µg/mL | MIC (isolate b2631, CF isolate): 0.5 µg/mL | MIC (isolate b3144, CF isolate): 2 µg/mL
